The structures appear in SMILES notation.

In turn, `COc1cc2oc(=O)c(C)c(C)c2cc1OCCCN1CCN(c2cccc3cccnc23)CC1` [Example 5, 7-methoxy-3,4-dimethyl-6-[3-(4-quinolin-8-ylpiperazin-1-yl)propoxy]-chromen-2-one] yielded a melting point of 225 to 228 °C. On to `COc1cc2oc(=O)c(C)c(C)c2cc1OCCN1CCN(c2cccc3[nH]ccc23)CC1.Cl.Cl`, for which the melting point is 231 to 237 °C.

For the compound `COc1cc2oc(=O)c(C)c(C)c2cc1OCCN1CCN(c2cccc3cccnc23)CC1` [Example 4, 7-methoxy-3,4-dimethyl-6-[2-(4-quinolin-8-ylpiperazin-1-yl)ethoxy]chromen-2-one], the melting point was in the range of 164 to 165 °C.

The compound `COc1cc2oc(=O)c(C)c(C)c2cc1OCCN1CCN(c2cccc3ccc(C)nc23)CC1` [Example 4, 7-methoxy-3,4-dimethyl-6-{2-[4-(2-methylquinolin-8-yl)piperazin-1-yl]-ethoxy}chromen-2-one] gave a melting point of 168 to 170 °C. The compound `COc1cc2oc(=O)c(C)c(C)c2cc1OCCN1CCN(c2cccc3[nH]ccc23)CC1` [Example 3, 6-{2-[4-(1H-indol-4-yl)piperazin-1-yl]ethoxy}-7-methoxy-3,4-dimethylchromen-2-one] gave a melting point of 201 to 202 °C. Then `COc1cc2oc(=O)c(C)c(C)c2cc1OCCCN1CCN(c2cccc3[nH]ccc23)CC1` [Example 5, 6-{3-[4-(1H-indol-4-yl)piperazin-1-yl]propoxy}-7-methoxy-3,4-dimethyl-chromen-2-one], with 193 to 195 °C.

As usually defined, the melting point is the temperature, or range, at which the solid turns liquid.

Source of the values: patent US20040014768A1, “Chromenone derivatives and their use for treating diseases in conjunction with 5-hta1receptors and/or dopamine d2 receptors” (priority 2000, published 2004).
